{"source": "patent US6514544B2", "about": "“Beverage for increasing the body's capacity to break down alcohol and method thereof” (JHS-Privatstiftung, priority 1998, dated 2003)", "origin": "cited, not measured here", "data": [{"smiles": "CCO", "note": "[alcohol, ethanol]", "values": [{"measurement": "share of the reabsorbed alcohol excreted via the kidneys", "setting": "approximately", "result": "1-2%"}, {"measurement": "share of the reabsorbed alcohol excreted via the lungs", "setting": "approximately", "result": "2-3%"}, {"measurement": "amount directly glucuronated", "setting": "slight amounts", "result": 0.5, "unit": "%"}]}]}
